Test results from PMC4391747 (Science translational medicine, 2012).

Tests used:
[1] = Solubility of MIV-150 in ring polymer; assay type: physicochemical
[2] = rat, in vivo; cited from earlier work

In the case of `CCC(=O)c1ccc(F)c([C@@H]2C[C@@H]2NC(=O)Nc2ccc(C#N)cn2)c1O` [MIV-150], the “Solubility of MIV-150 in EVA-40” value ([1]; DSC) is listed as “partially soluble”, the “Solubility of MIV-150 in silicone” value ([1]; DSC of formulated ring segments and release studies with micronized MIV-150) is listed as “insoluble” and the “Time within which absorbed MIV-150 is cleared” value [2] is listed as no more than 12 h.
